Measurements reported in patent US20240239790A1, “7-Morpholino-1,6-Naphthyridin-5-yl Derivatives and Pharmaceutical Compositions Thereof Useful as DNA-PK Inhibitor” (adMare Therapeutics Society, priority 2021, published 2024).
pEC50, pIC50: −log10 of the molar value. Read-outs that look alike come from different tables or passages of the source.

Assays:
DNA-PK = target: T1, DNA-PK (Homo sapiens, UniProt P78527); assay: DNA-PK Assay for Biochemical Enzymatic Inhibition (ADP Glo Kinase assay); conditions: DNA-PK enzyme, Table 1
T1 construct: purchased Invitrogen PR9107A
Description: A biochemical assay was performed to identify IC50 values against DNA-PK activity in a two-step reaction with a kinase reaction followed by ADP Glo™ Kinase assay Kit (Promega V9102).
Three-fold serial dilutions of compounds in DMSO were prepared in kinase assay buffer (50 mM HEPES pH 7.5, 20 mM MgCl2, 100 mM KCl, 50 μM DTT, 10 μg/ml calf thymus DNA, 0.01% Tween 20). Kinase assay buffer was used to prepare compound treatments to 0.02% DMSO (dimethyl sulphoxide) content. DMSO controls were prepared to produce a maximum and minimum luminescence signal for normalization. Substrate (Anaspec, AS-60210-5) and ATP (Promega V9102) and ATP mix was prepared by dilution in kinase assay buffer for 434.4 μM and 64.4 μM final assay concentrations, respectively. Compounds and control were added to 25 ng DNA-PK enzyme (Invitrogen, PR9107A) diluted in kinase buffer in assay plate (Corning 267459) and incubated for 15 minutes at room temperature prior to addition of substrate and ATP mix.
Throughout the assay, each time a reagent was added to the microplate, it was centrifuged for 1 minute at 1300 rcf. All reagents were added, and incubations carried out at room temperature. The reaction was then incubated for 60 minutes. ADP-ATP standards at 0, 4, 10, 40, 80, and 100% ADP (prepared as specified in the ADP Glo™ Kinase assay kit) were also added to the microplate at a volume equal to the total kinase reaction. The ADP Glo™ Kinase Assay kit was then used to quantify DNA-PK activity: following the 60-minute incubation, a 1:1 volume of ADP Glo reagent was added to all wells, then following a further 45-minute incubation, a 1:1 volume of Kinase Detection Reagent was added to all wells. After this two-step assay, plates were incubated in a Synergy-Neo2 plate reader for 30 minutes with gentle shaking, followed by endpoint luminescent read Luminescence data was normalized by subtracting the background signal and expressing all background-adjusted values as a percentage of the average maximum signal. The data was then expressed as percent inhibition by subtracting from 100% (i.e. maximum luminescent signal will be 0% inhibition) and the resulting data plotted against ten concentration points on a logarithmic scale, using GraphPad Prism. Non-linear regression analysis was performed on each concentration response curve and the log [inhibitor] vs response—variable slope (four parameters) equation was selected to generate IC50 values.

[1] = target: T2, DNA-PK phosphorylation at Serine 2056 (Homo sapiens, UniProt P78527); assay: Cellular Assay for Inhibition of DNA-PK Phosphorylation at Serine 2056 in FaDu cells (sandwich ELISA, neocarzinostatin); assay type: cell-based; conditions: pSer2056 DNA-PK, neocarzinostatin 1 μg/mL, Table 1
T2 construct: FaDu cells were purchased from ATCC; host or cells: FaDu
Procedure, shortened: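 FaDu cells pre-treated with compound (0.3% DMSO) for 1 h, then neocarzinostatin 1 μg/mL final added for 2 h to induce DSBs. Protein-normalised lysates read by sandwich ELISA for total and pSer2056 DNA-PK; % inhibition normalised between DMSO and NCS controls, IC50 from variable-slope log(inhibitor) fit.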

[2] = tested on: pDNA-PK induction in HCT116 tumour spheroids; assay: Multicellular tumour spheroid + radiation, pDNA-PK (ser2056) inhibition, immunohistochemical endpoint, HCT116; assay type: cell-based; conditions: 20 Gy, 20% O2
Description: Multicellular tumour spheroids determination of compound inhibition of pDNA-PK induction following radiation. Tumour spheroids were grown to approximately 0.5 mm in diameter and irradiated with 20 Gy in combination with inhibitor test compounds to determine their potency. Inhibitor concentration for 50% reduction in pDNA-PK induction (IC50) was determined via immunohistochemical staining in spheroid cryosections taken 2 hours following radiation.
(§1) Spheroid+radiation pDNA-PK. Radiation: 20 Gy. Drug: serial dilution 5 or 10 μM down to 3.5 nM (11 wells). Spheroids: 3-6 spheroids per well (300-500 μm diameter). 20% 02 and 5% CO2. 96 well plate format.
Protocol: pre-incubate 1 hours with drug, irradiate with 20 Gy, post-incubate 2 hours with drug, freeze and cryosection ×3 replicates.
Endpoint: fluorescent immunostin pDNA-PK ser2056 and image on microscope.
Analysis: determine EC50 concentration that decreases pDNA-PK induction by 50% after radiation.
Multicellular tumour spheroids determination of compound inhibition of pDNA-PK induction following radiation. Tumour spheroids were grown to approximately 0.5 mm in diameter and irradiated with 20 Gy in combination with inhibitor test compounds to determine their potency. Inhibitor concentration for 50% reduction in pDNA-PK induction (IC50) was determined via immunohistochemical staining in spheroid cryosections taken 2 hours following radiation. For cell survival endpoint 8 Gy radiation was used and 3 hours following radiation spheroids were dissociated, counted and plated for colony forming endpoint.
as §1, with “format. Endpoint: fluorescent immunostain pDNA-PK ser2056 and image on microscope. Analysis: determine EC50 concentrations that decreases pDNA-PK induction by 50% after irradiation.” for “format.”
Multicellular tumour spheroids were used to determine potency of test compounds in a 3D tissue environment using inhibition of pDNA-PK induction following radiation or cell survival as the endpoint. For the pDNA-PK endpoint HCT116 or FaDU tumour spheroids were grown to approximately 0.5 mm in diameter and irradiated with 20 Gy in combination with inhibitor test compounds to determine their potency. Experiments were carried out in 96 well plates containing 0.7 mls of MEM media containing 10% FBS and 10 mM glucose under 20% O2 & 5% CO2 at 37° C. Following dilution of compounds 1:1000 from DMSO stocks, compounds were serially diluted from 10 μM down to 3.5 nM and 5-10 spheroids added. 96 well plates were constantly stirred to avoid spheroids settling during the course of the experiment. The inhibitor concentration for 50% reduction in pDNA-PK induction (EC50) was determined via immunohistochemical staining in spheroid cryosections taken 2 hours following radiation using anti-pDNA-PK (ser 2056) and fixed immediately in formalin following sectioning. For cell survival endpoint 8 Gy radiation was used and, 3 hours following radiation, spheroids were dissociated, counted and plated for colony forming endpoint. Data presented in the table compound potency as EC50 [μM].

[3] = 2 hours following radiation, Example 9 Study 2, read-out: Spheroid Cell line: HCT116 Immunohistochemical endpoint pDNA-PK inhibition EC50
[4] = Spheroid, Cell Line: HCT115 (so in the source), 2 hours following radiation, Example 7, read-out: EC50, Immunohistochemical endpoint, pDNA-PK inhibition
[5] = spheroids, Example 8, read-out: Cell line: HCT116 Immunohistochemical endpoint pDNA-PK inhibition EC50
[6] = Homo sapiens, HCT-116, 2 hours following radiation, Example 9 Study 2, read-out: Spheroid Cell line: HCT116 Immunohistochemical endpoint pDNA-PK inhibition EC50
[7] = Homo sapiens, HCT-116, Spheroid, Cell Line: HCT115 (so in the source), 2 hours following radiation, Example 7, read-out: EC50, Immunohistochemical endpoint, pDNA-PK inhibition

“5-(((1s,4s)-4-(1H-imidazol-1-yl)cyclohexyl)oxy)-7-morpholino-N-propyl-1,6-naphthyridine-3-carboxamide [Compound 169]” showed a pIC50 (DNA-PK) of 6.82 to 8.00, a pIC50 [1] of 5.00 to 6.00 and a pEC50 [2, 3] of 4.00 to 5.00. The pEC50 [2, 4] was 4.00 to 5.00 and the pEC50 [2, 5] was 4.00 to 5.00.

`N=C(N)N[C@H]1CC[C@@H](Oc2nc(N3CCOCC3)cc3ncccc23)CC1` [Compound 16, 1-((1s,4s)-4-((7-morpholino-1,6-naphthyridin-5-yl)oxy)cyclohexyl)guanidine] showed a pIC50 (DNA-PK) of 8.00 to 9.00, a pIC50 [1] of 5.00 to 6.00 and a pEC50 [2, 3] of 4.00 to 5.00. For the same molecule, the pEC50 [2, 4] was 4.00 to 5.00 and the pEC50 [2, 5] was 4.00 to 5.00.

With `O=C(O)COc1cnc(N[C@H]2CC[C@@H](Oc3nc(N4CCOCC4)cc4ncccc34)CC2)nc1` [Compound 59, 2-((2-(((1s,4s)-4-((7-Morpholino-1,6-naphthyridin-5-yl)oxy)cyclohexyl)amino)pyrimidin-5-yl)oxy)acetic acid] the pIC50 (DNA-PK) was greater than 9.30, the pIC50 [1] was 4.52 to 5.00 and the pEC50 [2, 6] was 4.00 to 5.00. It also gave a pEC50 [2, 7] of 4.00 to 5.00.

In the case of `O=C(COc1cnc(N[C@H]2CC[C@@H](Oc3nc(N4CCOCC4)cc4ncccc34)CC2)nc1)N1CCSCC1` [Compound 73, 2-((2-(((1s,4s)-4-((7-Morpholino-1,6-naphthyridin-5-yl)oxy)cyclohexyl)amino)pyrimidin-5-yl)oxy)-1-thiomorpholinoethan-1-one], the pIC50 (DNA-PK) was 9.00 to 9.30, the pIC50 [1] was 6.00 to 7.00 and the pEC50 [2, 6] was 5.00 to 6.00. It also gave a pEC50 [2, 7] of 5.00 to 6.00.

`O=C(COc1cnc(N[C@H]2CC[C@@H](Oc3nc(N4CCOCC4)cc4ncccc34)CC2)nc1)N1CCCC1` [Compound 74, 2-((2-(((1s,4s)-4-((7-Morpholino-1,6-naphthyridin-5-yl)oxy)cyclohexyl)amino)pyrimidin-5-yl)oxy)-1-(pyrrolidin-1-yl)ethan-1-one] showed a pIC50 (DNA-PK) of 9.00 to 9.30, a pIC50 [1] of 6.00 to 7.00 and a pEC50 [2, 6] of 5.00 to 6.00. The pEC50 [2, 7] was 5.00 to 6.00.

`O=C(COc1cnc(N[C@H]2CC[C@@H](Oc3nc(N4CCOCC4)cc4ncccc34)CC2)nc1)N1CC(O)C1` [Compound 77, 1-(3-Hydroxyazetidin-1-yl)-2-((2-(((1s,4s)-4-((7-morpholino-1,6-naphthyridin-5-yl)oxy)cyclohexyl)amino)pyrimidin-5-yl)oxy)ethan-1-one] was tested, and the pIC50 (DNA-PK) was greater than 9.30, the pIC50 [1] was 6.00 to 7.00 and the pEC50 [2, 6] was 6.00 to 6.30. It also gave a pEC50 [2, 7] of 6.00 to 6.30.

For `c1cnc2cc(N3CCOCC3)nc(O[C@H]3CC[C@@H](Nc4ncc(OCc5ncco5)cn4)CC3)c2c1` [Compound 78, N-((1s,4s)-4-((7-Morpholino-1,6-naphthyridin-5-yl)oxy)cyclohexyl)-5-(oxazol-2-ylmethoxy)pyrimidin-2-amine], the pIC50 (DNA-PK) was 9.00 to 9.30, the pIC50 [1] was 6.00 to 7.00 and the pEC50 [2, 6] was 5.00 to 6.00. It also gave a pEC50 [2, 7] of 5.00 to 6.00.

Work on `Cn1ccnc1COc1cnc(N[C@H]2CC[C@@H](Oc3nc(N4CCOCC4)cc4ncccc34)CC2)nc1` [Compound 79, 5-((1-methyl-1H-imidazol-2-yl)methoxy)-N-((1s,4s)-4-((7-morpholino-1,6-naphthyridin-5-yl)oxy)cyclohexyl)pyrimidin-2-amine] yielded a pIC50 (DNA-PK) of 9.00 to 9.30, a pIC50 [1] of 6.00 to 7.00 and a pEC50 [2, 6] of 5.00 to 6.00. For the same molecule, the pEC50 [2, 7] was 5.00 to 6.00.

In the case of `CCOC(=O)c1cnc(NC2CCOCC2)nc1N[C@H]1CC[C@@H](Oc2nc(N3CCOCC3)cc3ncccc23)CC1` [Compound 93, Ethyl 4-(((1s,4s)-4-((7-morpholino-1,6-naphthyridin-5-yl)oxy)cyclohexyl)amino)-2-((tetrahydro-2H-pyran-4-yl)amino)pyrimidine-5-carboxylate], the pIC50 (DNA-PK) was 6.82 to 8.00, the pIC50 [1] was 5.00 to 6.00 and the pEC50 [2, 6] was 4.00 to 5.00. The pEC50 [2, 7] was 4.00 to 5.00.

`CCOC(=O)c1cnc(N[C@H]2CC[C@@H](Oc3nc(N4CCOCC4)cc4ncccc34)CC2)nc1NC1CCOCC1` [Compound 94, Ethyl 2-(((1s,4s)-4-((7-morpholino-1,6-naphthyridin-5-yl)oxy)cyclohexyl)amino)-4-((tetrahydro-2H-pyran-4-yl)amino)pyrimidine-5-carboxylate] was tested, and the pIC50 (DNA-PK) was 6.82 to 8.00, the pIC50 [1] was 6.00 to 7.00 and the pEC50 [2, 6] was 5.00 to 6.00. For the same molecule, the pEC50 [2, 7] was 5.00 to 6.00.

`CN(C)CCOc1cnc(C(=O)N[C@H]2CC[C@@H](Oc3nc(N4CCOCC4)cc4ncccc34)CC2)nc1` [Compound 126, 5-(2-(dimethylamino)ethoxy)-N-((1s,4s)-4-((7-morpholino-1,6-naphthyridin-5-yl)oxy)cyclohexyl)pyrimidine-2-carboxamide] showed a pIC50 (DNA-PK) of 8.00 to 9.00, a pIC50 [1] of 5.00 to 6.00 and a pEC50 [2, 6] of 4.00 to 5.00. For the same molecule, the pEC50 [2, 7] was 4.00 to 5.00.

With `O=C(Nc1ccc(F)cc1)N[C@H]1CC[C@@H](Oc2nc(N3CCOCC3)cc3ncccc23)CC1` [Compound 151, 1-(4-Fluorophenyl)-3-((1s,4s)-4-((7-morpholino-1,6-naphthyridin-5-yl)oxy)cyclohexyl)urea] the pIC50 (DNA-PK) was 8.00 to 9.00, the pIC50 [1] was 6.00 to 7.00 and the pEC50 ([2]; Homo sapiens, HCT-116, 2 h, spheroids, Example 8, read-out: Cell line: HCT116 Immunohistochemical endpoint pDNA-PK inhibition EC50) was 5.00 to 6.00. For the same molecule, the pEC50 [2, 6] was 5.00 to 6.00 and the pEC50 [2, 7] was 5.00 to 6.00.

`O=S(=O)(Nc1cnc2cc(N3CCOCC3)nc(O[C@H]3CC[C@@H](Nc4ncccn4)CC3)c2c1)C1CCCC1` [Compound 190, N-(7-morpholino-5-(((1s,4s)-4-(pyrimidin-2-ylamino)cyclohexyl)oxy)-1,6-naphthyridin-3-yl)cyclopentanesulfonamide] showed a pIC50 (DNA-PK) of 6.82 to 8.00, a pEC50 [2, 6] of 4.00 to 5.00 and a pEC50 [2, 7] of 4.00 to 5.00.
